Test results published in patent US10774084B2, “Adenine derivatives and their use as UV-photoprotective agents” (UNIVERZITA PALACKEHO V OLOMOUCI, priority 2015, dated 2020).

Legend:
Type in all cases: cell-based
[1] = tested on: BJ human fibroblast cells; test: Calcein AM cytotoxicity assay; conditions: 72 hrs
Text: (§1) One of the parameters used as the base for cytotoxic analysis is metabolic activity of viable cells. Microtiter assay, which uses the Calcein AM, is now widely used to quantify cell proliferation and cytotoxicity. The quantity of […] Calcein AM corresponds to the number of viable cells in culture. The cell lines of breast cancer (MCF-7), human erythromleukemia (K562), BJ human fibroblast cells (BJ) and human keratinocyte cell line (HaCaT) were used for routine screening of cytotoxicity of the compounds. The cells were maintened in Nunc/Corning 80 cm^2 plastic bottles and grown in media for cell culture (DMEM containing 5 g/l of glucose, 2 mM of glutamin, 100 U/ml of penicilin, 100 μg/ml of streptomycin, 10% of fetal bovine serum and sodium hydrogencarbonate). Cell suspensions were diluted according to cell types and according to expected final cell density (10^4 of cells per well according to characteristics of cell growth), pippeted 80 μl of cell suspension on 96-well microtiter plates. Innoculates were stabilized by 24 hrs preincubation at 37° C. in CO2. Particular concentrations of tested compounds were added in time zero as 20 μl aliquotto wells of microtiter plates. Usually, the compounds were diluted into six concentrations in four-fold dilution series. In routine testing, the highest well concentration was 166.7 μM, of change dependent on the substance. All drug concentrations were examined in duplicates. The incubation of cells with tested derivatives lasted 72 hrs at 37° C., 100% humidity and in the atmosphere of CO2. At the end of the incubation period, the cells were tested and analysed according to the addition of Calcein AM (Molecular probes) solution and the incubation lasted for next 1 hour. Fluorescence (FD) was measured using Labsystem FIA reader Fluorskan Ascent (Microsystems). The survival of tumor cells (The tumor cell survival-TCS) was counted according to equation: […](FDwell with derivative/FDcontrol well)×100%. The value of GI50, that is equal to the concentration of compound at which 50% of tumour cells are terminated. To evaluate the antitumor activity was tested toxicity of new derivatives on panel of cell lines of different histogenetic and species origin (Tab. 6, G150 concentration given in μM). […] Effective derivatives killed tumor cells in concentrations close to 0.1 to 50. None of the newly prepared compounds only reached the value.

K562 = test: Calcein AM cytotoxicity assay; conditions: Homo sapiens, 72 hrs
Text: as §1

MCF-7 = test: Calcein AM cytotoxicity assay; conditions: Homo sapiens, MCF7, 72 hrs
Text: as §1

HaCaT = test: Calcein AM cytotoxicity assay; conditions: Homo sapiens, 72 hrs
Text: as §1

[2] = tested on: Normal human dermal fibroblasts (NHDF); test: In vitro UVA/UVB photoprotection test on NHDF (Example 9)
Text: Normal human dermal fibroblasts (NHDF) were used as an in vitro model. Cells were isolated from tissue specimens obtained from healthy patients undergoing plastic surgery at the Department of Plastic and Aesthetic Surgery (University Hospital Olomouc). The use of skin tissue was in accordance with the Ethics Committee of the University Hospital and Faculty of Medicine and Dentistry, Palacky University, Olomouc and all patients signed written informed consent. Fibroblasts were used between the 2nd and 4th passage. For all experiments the fibroblasts were seeded onto 96-well plates at a density of 0.8×10^5 cells/ml (0.2 ml per well) of cultivation medium (DMEM supplemented with fetal calf serum (10%, v/v), penicillin ([…]) and streptomycin (100 U/ml)). Test substances included compounds number 1, 3, 9, 15 and 20. Compounds were dissolved in DMSO and then diluted in serum free medium (DMEM supplemented with penicillin ([…]) and streptomycin (100 U/ml)). After 24 h incubation was cultivation medium changed to serum free medium containing test compound or DMSO (negative control). The final applied concentrations range was 3.9-31.3 μmol/ll. As a control serum free medium supplemented with appropriate concentration of DMSO (0.5%, v/v) was used. Rosmarinic acid was used as positive control. Each test compound was in parallel applied on two 96-well plates with NHDF. After 60 minutes incubation medium with test compound was discarded, cells were washed two-times with PBS and PBS supplemented with glucose (1 mg/ml) was applied. To study UVA photoprotection, a plate was exposed to a cytotoxic dose of UVA radiation (7.5 J/cm^2) using a solar simulator SOL 500 (Dr. Hoenle Technology, Germany) equipped with a H1 filter transmitting wavelengths of 320-400 nm. To study UVB photoprotection, a plate was exposed to a cytotoxic dose of UVB radiation (150 mJ/cm^2) using the solar simulator equipped with a H2 filter transmitting wavelengths of 295-320 nm. Intensity of UVA or UVB radiation was evaluated before each irradiation by UVA- or UVB-meter. Control (non-irradiated) plates were for the period of irradiation incubated in dark. After UVA or UVB exposure PBS with glucose was discarded and serum free medium was applied. After 24 hours (37° C., 5% CO2) cell damage was evaluated by neutral red (NR) incorporation into viable cells. Medium was discarded and NR solution (0.03% w/v, PBS) was applied. After 60 minutes NR solution was discarded, cells were fixed with a mixture of formaldehyde (0.5%, v/v) and CaCl2 (1%, m/v) in ratio 1:1 and then NR was dissolved in methanol (50%, v/v) with acetic acid (1%, v/v). After 5 minutes of intensive shaking absorbance was measured at 540 nm. Experiments were performed in four independent repetitions with use of cells from four donors to minimize individual sensitivity of donor cells. Photoprotective effect was evaluated by comparison of experimental data (absorbance) of test compounds with a positive control and a negative control (according to the following equation:
[formula] • As . . . absorbance of sample (cells pre-incubated with test compounds in serum free medium and irradiated) • Anc . . . absorbance of negative control (cells pre-incubated with s DMSO in serum free medium and non-irradiated=incubated in dark) • Apc . . . absorbance of positive control (cells pre-incubated with s DMSO in serum free medium and irradiated)

| Compound | GI50 [1] [µM] | GI50 (K562) [µM] | GI50 (MCF-7) [µM] | GI50 (HaCaT) [µM] | Protection (%) ([2]; UVA 7.5 J/cm^2, 3.9 μmol/l) | Protection (%) ([2]; UVA 7.5 J/cm^2, 7.8 μmol/l) | Protection (%) ([2]; UVA 7.5 J/cm^2, 15.6 μmol/l) | Protection (%) ([2]; UVA 7.5 J/cm^2, 31.3 μmol/l) | Protection (%) ([2]; UVB 150 mJ/cm^2, 3.9 μmol/l) | Protection (%) ([2]; UVB 150 mJ/cm^2, 7.8 μmol/l) | Protection (%) ([2]; UVB 150 mJ/cm^2, 15.6 μmol/l) | Protection (%) ([2]; UVB 150 mJ/cm^2, 31.3 μmol/l) |
| --- | --- | --- | --- | --- | --- | --- | --- | --- | --- | --- | --- | --- |
| c1nc(NCC2CCCO2)c2ncn(C3CCCO3)c2n1 (centres unmarked) [Compound 1, 6-(tetrahydrofuran-2-ylmethylamino)-9-(tetrahydrofuran-2-yl)purine] | > 100 | > 100 | > 100 | > 100 | – | – | – | – | – | – | – | – |
| OCc1ccc(CNc2ncnc3c2ncn3C2CCCO2)o1 (centres unmarked) [Compound 3, 6-(5-hydroxymethylfuran-2-ylmethylamino)-9-(tetrahydrofuran-2-yl)purine] | – | – | – | – | 14.7 | 16.3 | 24.6 | 25.8 | 43.6 | 53.1 | 47.4 | 48.4 |
| c1csc(CNc2ncnc3c2ncn3C2CCCO2)c1 (centres unmarked) [Compound 9, 6-(thiophen-2-ylmethylamino)-9-(tetrahydrofuran-2-yl)purine] | > 100 | > 100 | > 100 | > 100 | 41.3 | 44.4 | 45.7 | 52.0 | 34.9 | 62.6 | 64.4 | 68.7 |
| Clc1nc(NCc2ccco2)c2ncn(C3CCCO3)c2n1 (centres unmarked) [Compound 15, 2-chloro-6-furfurylamino-9-(tetrahydrofuran-2-yl)purine] | – | – | – | – | 24.5 | 29.9 | 33.0 | 35.3 | 39.9 | 55.2 | 53 | 60.2 |
| Clc1nc(NCC2CCCO2)c2ncn(C3CCCO3)c2n1 (centres unmarked) [Compound 20, 2-chloro-6-(tetrahydrofuran-2-ylmethylamino)-9-(tetrahydrofuran-2-yl)purine] | > 100 | > 100 | > 100 | > 100 | 5.9 | 10.7 | 11.5 | 16.2 | 39.8 | 58.3 | 58.2 | 60 |
